Tests used:
Experiment in all cases: relative viability (nuclei count vs DMSO), 5 days (fraction); higher = more cells survive
Bexarotene + Lapatinib = compound: C=C(c1ccc(C(=O)O)cc1)c1cc2c(cc1C)C(C)(C)CCC2(C)C [Bexarotene] + CS(=O)(=O)CCNCc1ccc(-c2ccc3ncnc(Nc4ccc(OCc5cccc(F)c5)c(Cl)c4)c3c2)o1 [Lapatinib] (partner 2 µM)
Outline: (§1)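 A single step with final 0.05% Triton X-100, 1% formaldehyde and 1 ug/ml Hoechst fixed the cells and stained nuclei 5 days after treatment. Lung cancer cell lines in 1536-well plates had been treated by pin tool the day after seeding with one drug alone or a fixed anchor-drug dose plus five library-drug doses (not always all listed) in √10 steps, and nuclei were counted on 4× images. Relative viability is the ratio of nuclei in treated wells to nuclei in vehicle wells, taken as the median of duplicate plates.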

Bexarotene + Crizotinib = compound: C=C(c1ccc(C(=O)O)cc1)c1cc2c(cc1C)C(C)(C)CCC2(C)C [Bexarotene] + C[C@@H](Oc1cc(-c2cnn(C3CCNCC3)c2)cnc1N)c1c(Cl)ccc(F)c1Cl [Crizotinib] (partner 1 µM)
Outline: as §1

Bexarotene + Tozasertib = compound: C=C(c1ccc(C(=O)O)cc1)c1cc2c(cc1C)C(C)(C)CCC2(C)C [Bexarotene] + Cc1cc(Nc2cc(N3CCN(C)CC3)nc(Sc3ccc(NC(=O)C4CC4)cc3)n2)n[nH]1 [Tozasertib] (partner 0.1 µM)
Outline: as §1

Bexarotene + Decitabine = compound: C=C(c1ccc(C(=O)O)cc1)c1cc2c(cc1C)C(C)(C)CCC2(C)C [Bexarotene] + Nc1ncn([C@H]2C[C@H](O)[C@@H](CO)O2)c(=O)n1 [Decitabine] (partner 2 µM)
Outline: as §1

| Cell Line | relative viability (Bexarotene + Lapatinib; first compound 0.08 µM) | relative viability (Bexarotene + Lapatinib; first compound 0.253 µM) | relative viability (Bexarotene + Lapatinib; first compound 0.8 µM) | relative viability (Bexarotene + Lapatinib; first compound 2.53 µM) | relative viability (Bexarotene + Lapatinib; first compound 8 µM) | relative viability (Bexarotene + Crizotinib; first compound 0.08 µM) | relative viability (Bexarotene + Crizotinib; first compound 0.253 µM) | relative viability (Bexarotene + Crizotinib; first compound 0.8 µM) | relative viability (Bexarotene + Crizotinib; first compound 2.53 µM) | relative viability (Bexarotene + Crizotinib; first compound 8 µM) | relative viability (Bexarotene + Tozasertib; first compound 0.08 µM) | relative viability (Bexarotene + Tozasertib; first compound 0.253 µM) | relative viability (Bexarotene + Tozasertib; first compound 0.8 µM) | relative viability (Bexarotene + Tozasertib; first compound 2.53 µM) | relative viability (Bexarotene + Tozasertib; first compound 8 µM) | relative viability (Bexarotene + Decitabine; first compound 0.08 µM) | relative viability (Bexarotene + Decitabine; first compound 0.253 µM) | relative viability (Bexarotene + Decitabine; first compound 0.8 µM) | relative viability (Bexarotene + Decitabine; first compound 2.53 µM) | relative viability (Bexarotene + Decitabine; first compound 8 µM) |
| --- | --- | --- | --- | --- | --- | --- | --- | --- | --- | --- | --- | --- | --- | --- | --- | --- | --- | --- | --- | --- |
| HCC-366 | 0.984 | 1.06 | 1.06 | 1.04 | 1.06 | 0.526 | 0.62 | 0.35 | 0.574 | 0.586 | 0.169 | 0.118 | 0.119 | 0.0858 | 0.113 | 0.36 | 0.376 | 0.339 | 0.346 | 0.289 |
| HCC-827 | 0.274 | 0.159 | 0.185 | 0.196 | 0.196 | 0.894 | 0.939 | 0.902 | 0.94 | 0.915 | 0.444 | 0.395 | 0.433 | 0.402 | 0.366 | 0.396 | 0.311 | 0.33 | 0.298 | 0.335 |
| HOP-62 | 1.02 | 1.09 | 0.943 | 1.14 | 1.1 | 1.18 | 0.915 | 0.953 | 1.09 | 0.944 | 0.352 | 0.366 | 0.408 | 0.391 | 0.363 | 0.222 | 0.183 | 0.183 | 0.164 | 0.208 |
| IA-LM | – | 0.773 | 0.68 | 0.536 | 0.694 | – | 1.03 | 0.676 | 0.678 | 0.62 | – | – | – | – | – | – | – | – | – | – |
| LC-2-ad | 0.993 | 1.09 | 1.07 | 0.994 | 0.997 | 0.443 | 0.46 | 0.44 | 0.504 | 0.412 | 0.438 | 0.503 | 0.408 | 0.41 | 0.434 | 0.805 | 0.85 | 0.853 | 0.772 | 0.813 |
| LCLC-97TM1 | 1.05 | 1.2 | 1.39 | 1.15 | 1.19 | 0.478 | 0.343 | 0.576 | 0.409 | 0.472 | 0.251 | 0.192 | 0.206 | 0.189 | 0.221 | 0.282 | 0.224 | 0.227 | 0.189 | 0.21 |
| LCLC-103H | – | – | – | – | – | 1.15 | 1.21 | 1.03 | 0.999 | 1.12 | 0.531 | 0.452 | 0.428 | 0.48 | 0.43 | 0.811 | 0.701 | 0.689 | 0.795 | 0.742 |
| LK-2 | 1.33 | 1 | 1.04 | 0.968 | 0.961 | 0.309 | 0.213 | 0.206 | 0.221 | 0.247 | 0.175 | 0.162 | 0.185 | – | 0.165 | 0.387 | 0.308 | 0.321 | 0.35 | 0.279 |
| LOU-NH91 | 0.736 | 0.755 | 0.691 | 0.695 | 0.722 | 0.767 | 0.73 | 0.696 | 0.686 | 0.639 | 0.643 | 0.624 | 0.665 | 0.637 | 0.598 | 0.854 | 0.841 | 0.833 | 0.773 | 0.717 |
| LU99A | 1.12 | 0.917 | 0.929 | 0.99 | 1.03 | 0.495 | 0.634 | 0.573 | 0.524 | 0.542 | 0.291 | 0.252 | 0.296 | 0.234 | 0.284 | 1.18 | 1 | 0.935 | 0.909 | 0.889 |
| NCI-H441 | – | – | – | – | – | 0.742 | 0.708 | 0.94 | 0.635 | 0.738 | 0.709 | 0.758 | 0.631 | 0.676 | 0.656 | 0.3 | 0.283 | 0.236 | 0.229 | 0.279 |
| NCI-H1299 | 1.02 | 1.03 | 1.04 | 0.917 | 0.964 | 1 | 1.03 | 1.03 | 0.964 | 1.02 | – | – | – | – | – | – | – | – | – | – |
| NCI-H1395 | 1.05 | 0.935 | 0.926 | 0.902 | 0.997 | – | – | – | – | – | 0.754 | 0.77 | 0.746 | 0.687 | 0.799 | 0.801 | 0.686 | 0.72 | 0.713 | 0.731 |
| NCI-H1563 | 1.09 | 0.945 | 0.799 | 0.903 | 0.891 | 0.842 | 0.843 | 0.916 | 0.876 | 0.81 | – | – | – | – | – | – | – | – | – | – |
| NCI-H1648 | – | – | – | – | – | – | – | – | – | – | 0.453 | 0.559 | 0.307 | 0.492 | 0.384 | 0.489 | 0.409 | 0.451 | 0.36 | 0.465 |
| NCI-H1703 | 1.14 | 1.11 | 0.802 | 0.834 | 0.762 | 0.414 | 0.601 | 0.57 | 0.421 | 0.522 | – | – | – | – | – | – | – | – | – | – |
| NCI-H1792 | 0.883 | 0.763 | 0.794 | 0.574 | 0.837 | 0.859 | 0.947 | 0.874 | 0.737 | 0.831 | – | – | – | – | – | 0.548 | 0.527 | 0.493 | 0.531 | 0.425 |
| NCI-H1793 | 0.647 | 0.68 | 0.647 | 0.568 | 0.519 | – | – | – | – | – | 0.308 | 0.319 | 0.394 | 0.287 | 0.337 | 0.54 | 0.434 | 0.563 | 0.469 | 0.328 |
| NCI-H2228 | 1.55 | 0.935 | 0.763 | 1.17 | 0.909 | 0.512 | 0.462 | 0.374 | 0.356 | 0.458 | 0.241 | 0.262 | 0.226 | 0.205 | 0.229 | – | – | – | – | – |
| SW 900 | – | – | – | – | – | – | – | – | – | – | 0.559 | 0.617 | 0.589 | 0.498 | 0.431 | 0.463 | 0.397 | 0.498 | 0.448 | 0.462 |
